In patent US10463651B2, “3-(1H-pyrrolo[3,2-C]pyridin-2-YL)-1H-indazoles and therapeutic uses thereof” (Samumed, LLC, priority 2015, dated 2019):

Experiments:
Type in all cases: cell-based
[1] = test system: primary human mesenchymal stem cells (hMSCs); experiment: Induction of chondrogenesis in hMSCs (Rhodamine B / Nile Red nodule imaging); settings: for EC50: concentration required to induce 50% levels of chondrogenesis vs TGF-β3 positive control, read-out: Conc (nM) of 50% TGF-β3 activity; for Emax: maximum activity relative to TGF-β3 (10 ng/mL) positive control, read-out: Max. Activity as % TGF-β3 activity
Outline: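 Primary hMSCs at passage 3-6 were treated with compound; nodule area per well was normalized to the mean of 3 DMSO wells, averaged over 2-3 replicates, and the concentration giving 50% chondrogenesis relative to TGF-β3 control, plus maximum activity and its dose, was derived.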

IL-6 (THP-1 cells) = experiment: IL-6 inhibition in LPS-stimulated THP-1 cells (HTRF); settings: Homo sapiens; IL6 by HTRF, THP-1 cells, 500 ng/mL LPS, 22 hours
Outline: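 THP-1 cells, pre-cultured 24 h in 1% FBS medium, treated with compound 2 h at 37 °C, then stimulated with 500 ng/mL LPS for 22 h. Secreted IL-6 measured by HTRF as the 665/620 nm ratio. Values normalized to DMSO; EC50 from four-parameter fit, duplicates.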

SW480 colon cancer cells = experiment: Cell viability assay (CellTiter-Blue); settings: Homo sapiens; for EC50: 96 h, SW480 cell viability, four days, CellTiter-Blue
Outline: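 Fluorescence from resazurin reduced to resorufin by metabolically active cells was the read-out, taken after ~3 h with CellTiter-Blue.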

[2] = test system: primary human fibroblasts derived from IPF patients (LL29 cells) treated with TGF-β1; experiment: Inhibition of the fibrotic process (αSMA staining) in TGF-β1-treated fibroblasts; settings: Fibroblast, 96 h, % αSMA-positive LL29 cells, TGF-β1 20 ng/mL, 4 days
Outline: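 LL29 fibroblasts from IPF patients, 1,500 cells/well in F12 with 1% FBS, stimulated with TGF-β1; TGF-β1 plus DMSO wells as controls. Incubation 4 days, then SYTOX green 1 μM final for 30 min at room temperature. Fibrotic response read as αSMA staining.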

[3] = test system: Wnt activity (Sp5-Luc reporter, SW480 colon carcinoma cells); experiment: Screening assay for Wnt activity (Sp5-Luc reporter gene assay in SW480 cells); settings: Homo sapiens; for EC50: Sp5-Luc reporter, SW480 cells, incubated overnight
Outline: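 SW480 colon carcinoma cells stably carrying Sp5 promoter (eight TCF/LEF sites)-driven firefly luciferase, plated at 4,000 cells/well in 1% FBS medium and incubated overnight at 37° C. Luminescence normalised to DMSO-only cells; EC50 from four-parameter variable-slope nonlinear regression.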

CCNCc1cncc(-c2ccc3[nH]nc(-c4cc5c(-c6ccccc6F)nccc5[nH]4)c3c2)c1 [Compound 62, N-((5-(3-(4-(2-Fluorophenyl)-1H-pyrrolo[3,2-c]pyridin-2-yl)-1H-indazol-5-yl)pyridin-3-yl)methyl)ethanamine]
EC50 [1]: 900 nM
Emax [1]: 59%
EC50 (IL-6 (THP-1 cells)): 2.85 µM
EC50 (SW480 colon cancer cells): 1.28 µM
EC50 [2]: 2.49 µM
EC50 [3]: 3.37 µM

O=C(Nc1cncc(-c2ccc3[nH]nc(-c4cc5c(-c6cccnc6)nccc5[nH]4)c3c2)c1)C1CCC1 [Compound 105, N-(5-(3-(4-(Pyridin-3-yl)-1H-pyrrolo[3,2-c]pyridin-2-yl)-1H-indazol-5-yl)pyridin-3-yl)cyclobutanecarboxamide]
EC50 [1]: 10 nM
Emax [1]: 172%
EC50 (IL-6 (THP-1 cells)): 0.04 µM
EC50 (SW480 colon cancer cells): 0.555 µM
EC50 [2]: 2.43 µM
EC50 [3]: 0.111 µM

Fc1cccc(-c2nccc3[nH]c(-c4n[nH]c5ccc(-c6cncc(CN7CCC(F)(F)C7)c6)cc45)cc23)c1 [Compound 26, 5-(5-((3,3-Difluoropyrrolidin-1-yl)methyl)pyridin-3-yl)-3-(4-(3-fluorophenyl)-1H-pyrrolo[3,2-c]pyridin-2-yl)-1H-indazole]
EC50 [1]: 10 nM
Emax [1]: 228%
EC50 (IL-6 (THP-1 cells)): 0.142 µM
EC50 (SW480 colon cancer cells): 0.293 µM
EC50 [2]: 0.169 µM
EC50 [3]: 0.125 µM

CCCCC(=O)Nc1cncc(-c2ccc3[nH]nc(-c4cc5c(N6CCN(C)CC6)nccc5[nH]4)c3c2)c1 [Compound 243, N-(5-(3-(4-(4-Methylpiperazin-1-yl)-1H-pyrrolo[3,2-c]pyridin-2-yl)-1H-indazol-5-yl)pyridin-3-yl)pentanamide]
Emax [1]: 49%
EC50 (IL-6 (THP-1 cells)): 3.17 µM
EC50 (SW480 colon cancer cells): 3.48 µM
EC50 [2]: 1.83 µM
EC50 [3]: 3.69 µM

CC(C)Nc1cncc(-c2ccc3[nH]nc(-c4cc5c(-c6cc(F)cc(CNS(C)(=O)=O)c6)nccc5[nH]4)c3c2)c1 [Compound 488, N-(3-Fluoro-5-(2-(5-(5-(isopropylamino)pyridin-3-yl)-1H-indazol-3-yl)-1H-pyrrolo[3,2-c]pyridin-4-yl)benzyl)methanesulfonamide]
EC50 [1]: 300 nM
Emax [1]: 191%
EC50 (IL-6 (THP-1 cells)): 0.04 µM
EC50 (SW480 colon cancer cells): 0.358 µM
EC50 [2]: 0.125 µM
EC50 [3]: 0.151 µM

c1cc2[nH]c(-c3n[nH]c4ccc(-c5cncc(CN6CCCCC6)c5)cc34)cc2c(N2CCCCC2)n1 [Compound 183, 3-(4-(Piperidin-1-yl)-1H-pyrrolo[3,2-c]pyridin-2-yl)-5-(5-(piperidin-1-ylmethyl)pyridin-3-yl)-1H-indazole]
Emax [1]: 48%
EC50 (IL-6 (THP-1 cells)): 9.31 µM
EC50 (SW480 colon cancer cells): 3.81 µM
EC50 [2]: 3.29 µM
EC50 [3]: 4.21 µM

CC(C)CC(=O)Nc1cncc(-c2ccc3[nH]nc(-c4cc5c(-c6ccncc6)nccc5[nH]4)c3c2)c1 [Compound 114, 3-Methyl-N-(5-(3-(4-(pyridin-4-yl)-1H-pyrrolo[3,2-c]pyridin-2-yl)-1H-indazol-5-yl)pyridin-3-yl)butanamide]
EC50 [1]: 30 nM
Emax [1]: 95%
EC50 (IL-6 (THP-1 cells)): 1.02 µM
EC50 (SW480 colon cancer cells): > 10 µM
inhibition at 10 µM (SW480 colon cancer cells; SW480, 96 h, read-out: percent inhibition at 10 μM): 4.1%
EC50 [2]: 2.22 µM
inhibition at 10 µM ([3]; SW480, read-out: percent inhibition at 10 μM): 39.7%
EC50 [3]: > 10 µM

O=C(Nc1cncc(-c2ccc3[nH]nc(-c4cc5c(-c6ccc(F)cc6)nccc5[nH]4)c3c2)c1)C1CCC1 [Compound 49, N-(5-(3-(4-(4-Fluorophenyl)-1H-pyrrolo[3,2-c]pyridin-2-yl)-1H-indazol-5-yl)pyridin-3-yl)cyclobutanecarboxamide]
EC50 [1]: 900 nM
Emax [1]: 160%
EC50 (IL-6 (THP-1 cells)): 1.08 µM
EC50 (SW480 colon cancer cells): 0.186 µM
EC50 [2]: 0.115 µM
EC50 [3]: 0.365 µM
